From ChEMBL document CHEMBL4152365, “Discovery of DS-6930, a potent selective PPARγ modulator. Part I: Lead identification” (Bioorg Med Chem, 2018)
Converted amounts (≈) assume the structure as drawn.

Test system: not listed separately
Experiment: Metabolic stability in human liver microsomes after 0.5 hrs
Type: ADME, microsome
Settings: read-out: Stability

Row | Compound | remaining at 0.5 h [%]
1 | Cc1ccc(Oc2ccc3nc(COc4cccc(C(=O)O)c4)n(C)c3c2)c(F)c1 | 92
2 | Cn1c(COc2cccc(C(=O)O)c2)nc2ccc(Oc3cc(F)ccc3F)cc21 | 98

Test system: not listed separately
Experiment: 1-octanol/PBS distribution co-efficient, log D of the compound at […] at pH 7.4 after 30 mins by HPLC-MS/MS analysis
Type: physicochemical
Settings: not given

Row | Compound | logD at 0.5 h
3 | Cc1ccc(Oc2ccc3nc(COc4cccc(C(=O)O)c4)n(C)c3c2)c(F)c1 | 2.3
4 | Cn1c(COc2cccc(C(=O)O)c2)nc2ccc(Oc3cc(F)ccc3F)cc21 | 1.9

Test system: not listed separately
Experiment: Clearance in cynomolgus monkey at 1 mg/kg, iv by LC-MS/MS analysis
Type: ADME, organism-based, Macaca fascicularis
Settings: in vivo

Row | Compound | clearance [mL/min/kg]
5 | Cc1ccc(Oc2ccc3nc(COc4cccc(C(=O)O)c4)n(C)c3c2)c(F)c1 | 4.16
6 | Cn1c(COc2cccc(C(=O)O)c2)nc2ccc(Oc3cc(F)ccc3F)cc21 | 0.8

Target: T1, Peroxisome proliferator-activated receptor gamma (Homo sapiens, UniProt P37231)
T1 sequence (P37231 whole entry): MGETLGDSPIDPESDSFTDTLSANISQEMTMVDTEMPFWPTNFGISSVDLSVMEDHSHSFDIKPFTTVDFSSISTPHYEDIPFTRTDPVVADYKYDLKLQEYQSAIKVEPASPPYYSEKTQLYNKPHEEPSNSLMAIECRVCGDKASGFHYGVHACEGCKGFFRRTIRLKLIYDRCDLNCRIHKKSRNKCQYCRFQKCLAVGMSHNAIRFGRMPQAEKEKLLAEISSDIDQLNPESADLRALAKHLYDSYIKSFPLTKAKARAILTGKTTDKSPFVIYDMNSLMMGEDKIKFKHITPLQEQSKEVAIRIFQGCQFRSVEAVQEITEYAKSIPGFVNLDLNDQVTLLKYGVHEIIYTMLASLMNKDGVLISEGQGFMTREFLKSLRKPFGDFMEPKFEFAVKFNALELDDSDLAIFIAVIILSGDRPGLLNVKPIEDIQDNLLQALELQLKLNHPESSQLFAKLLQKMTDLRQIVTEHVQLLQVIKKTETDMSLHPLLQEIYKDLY
Experiment: Agonist activity at recombinant human GAL4-DBD fused PPARgamma LBD expressed in COS7 cells after 24 hrs by luciferase reporter gene assay
Type: cell-based
Settings: not given

Row | Compound | EC50 [nM]
7 | Cc1ccc(Oc2ccc3nc(COc4cccc(C(=O)O)c4)n(C)c3c2)c(F)c1 | 92
8 | Cn1c(COc2cccc(C(=O)O)c2)nc2ccc(Oc3cc(F)ccc3F)cc21 | 134

Test system: not listed separately
Experiment: Plasma concentration in hyperglycemic KK/Ta mouse at 30 mg/kg/day, po administered through diet for 3 days measured on day 3 post last dose
Type: ADME, organism-based
Settings: not given

Row | Compound | concentration at 72 h [ng/mL]
9 | Cc1ccc(Oc2ccc3nc(COc4cccc(C(=O)O)c4)n(C)c3c2)c(F)c1 | 550
10 | Cn1c(COc2cccc(C(=O)O)c2)nc2ccc(Oc3cc(F)ccc3F)cc21 | 700

Test system: not listed separately
Experiment: Half life in cynomolgus monkey at 3 mg/kg, po by LC-MS/MS analysis
Type: ADME, organism-based, Macaca fascicularis
Settings: in vivo

Row | Compound | half-life [h]
11 | Cc1ccc(Oc2ccc3nc(COc4cccc(C(=O)O)c4)n(C)c3c2)c(F)c1 | 16.1
12 | Cn1c(COc2cccc(C(=O)O)c2)nc2ccc(Oc3cc(F)ccc3F)cc21 | 16.1

Test system: Mus musculus
Experiment: Glucose-lowering effect in hyperglycemic KK/Ta mouse assessed as reduction in plasma glucose level at 30 mg/kg/day, po administered through diet for 3 days relative to control
Type: functional
Design: scale not given: the % may be the effect or the level left
Settings: not given

Row | Compound | Activity [%]
13 | Cc1ccc(Oc2ccc3nc(COc4cccc(C(=O)O)c4)n(C)c3c2)c(F)c1 | 53.4
14 | Cn1c(COc2cccc(C(=O)O)c2)nc2ccc(Oc3cc(F)ccc3F)cc21 | 51.2

Test system: Rattus norvegicus
Experiment: Toxicity in Zucker diabetic fatty rat assessed as body weight gain at 3 mg/kg, po administered once daily for 14 days relative to control
Type: organism-based
Settings: in vivo, 336 h

Row | Compound | Activity [%]
15 | Cc1ccc(Oc2ccc3nc(COc4cccc(C(=O)O)c4)n(C)c3c2)c(F)c1 | 8.5
16 | Cn1c(COc2cccc(C(=O)O)c2)nc2ccc(Oc3cc(F)ccc3F)cc21 | 9.5

Test system: not listed separately
Experiment: Metabolic stability in cynomolgus monkey liver microsomes after 0.5 hrs
Type: ADME, Macaca fascicularis, microsome
Settings: read-out: Stability

Row | Compound | remaining at 0.5 h [%]
17 | Cc1ccc(Oc2ccc3nc(COc4cccc(C(=O)O)c4)n(C)c3c2)c(F)c1 | 100
18 | Cn1c(COc2cccc(C(=O)O)c2)nc2ccc(Oc3cc(F)ccc3F)cc21 | 100

Test system: not listed separately
Experiment: Cmax in cynomolgus monkey at 3 mg/kg, po by LC-MS/MS analysis
Type: ADME, organism-based, Macaca fascicularis
Design: dose 3 mg/kg, route oral
Settings: in vivo

Row | Compound | Cmax [ng/mL]
19 | Cc1ccc(Oc2ccc3nc(COc4cccc(C(=O)O)c4)n(C)c3c2)c(F)c1 | 330
20 | Cn1c(COc2cccc(C(=O)O)c2)nc2ccc(Oc3cc(F)ccc3F)cc21 | 5630

Test system: not listed separately
Experiment: Oral bioavailability in cynomolgus monkey at 3 mg/kg by LC-MS/MS analysis
Type: ADME, organism-based, Macaca fascicularis
Settings: in vivo

Row | Compound | bioavailability [%]
21 | Cc1ccc(Oc2ccc3nc(COc4cccc(C(=O)O)c4)n(C)c3c2)c(F)c1 | 24
22 | Cn1c(COc2cccc(C(=O)O)c2)nc2ccc(Oc3cc(F)ccc3F)cc21 | 65

Test system: not listed separately
Experiment: AUC (0 to 24 hrs) in Zucker diabetic fatty rat at 3 mg/kg, po dosed once daily for 14 days and followed by additional administeration on day 15
Type: ADME, organism-based
Design: dose 3 mg/kg, time < 24 hr, route oral
Settings: in vivo

Row | Compound | AUC at 24 h [ng·h/mL]
23 | Cc1ccc(Oc2ccc3nc(COc4cccc(C(=O)O)c4)n(C)c3c2)c(F)c1 | 3160
24 | Cn1c(COc2cccc(C(=O)O)c2)nc2ccc(Oc3cc(F)ccc3F)cc21 | 3870

Test system: not listed separately
Experiment: Tmax in Zucker diabetic fatty rat at 3 mg/kg, po dosed once daily for 14 days and followed by additional administeration on day 15
Type: ADME, organism-based
Settings: in vivo

Row | Compound | Tmax [h]
25 | Cc1ccc(Oc2ccc3nc(COc4cccc(C(=O)O)c4)n(C)c3c2)c(F)c1 | 2.4
26 | Cn1c(COc2cccc(C(=O)O)c2)nc2ccc(Oc3cc(F)ccc3F)cc21 | 2

Target: T2, Peroxisome proliferator-activated receptor gamma (Homo sapiens) (UniProt P37231)
T2 sequence (whole entry): T1 sequence (P37231 whole entry)
Experiment: Agonist activity at recombinant human GAL4-DBD fused PPARgamma LBD expressed in COS7 cells at 10 uM after 24 hrs by luciferase reporter gene assay relative to rosiglitazone
Type: cell-based
Settings: not given

Row | Compound | Emax [%]
27 | Cc1ccc(Oc2ccc3nc(COc4cccc(C(=O)O)c4)n(C)c3c2)c(F)c1 | 90
28 | Cn1c(COc2cccc(C(=O)O)c2)nc2ccc(Oc3cc(F)ccc3F)cc21 | 79

Test system: Mus musculus
Experiment: Toxicity in hyperglycemic KK/Ta mouse assessed as body weight gain at 30 mg/kg/day, po administered through diet for 3 days relative to control
Type: organism-based
Settings: in vivo, 72 h

Row | Compound | Activity [%]
29 | Cc1ccc(Oc2ccc3nc(COc4cccc(C(=O)O)c4)n(C)c3c2)c(F)c1 | 2.5
30 | Cn1c(COc2cccc(C(=O)O)c2)nc2ccc(Oc3cc(F)ccc3F)cc21 | 3.3

Test system: not listed separately
Experiment: Cmax in Zucker diabetic fatty rat at 3 mg/kg, po dosed once daily for 14 days and followed by additional administeration on day 15
Type: ADME, organism-based
Design: dose 3 mg/kg, route oral
Settings: in vivo

Row | Compound | Cmax [ng/mL]
31 | Cc1ccc(Oc2ccc3nc(COc4cccc(C(=O)O)c4)n(C)c3c2)c(F)c1 | 300
32 | Cn1c(COc2cccc(C(=O)O)c2)nc2ccc(Oc3cc(F)ccc3F)cc21 | 520

Test system: not listed separately
Experiment: Metabolic stability in rat liver microsomes after 0.5 hrs
Type: ADME, microsome
Settings: read-out: Stability

Row | Compound | remaining at 0.5 h [%]
33 | Cc1ccc(Oc2ccc3nc(COc4cccc(C(=O)O)c4)n(C)c3c2)c(F)c1 | 98
34 | Cn1c(COc2cccc(C(=O)O)c2)nc2ccc(Oc3cc(F)ccc3F)cc21 | 95

Test system: not listed separately
Experiment: Tmax in cynomolgus monkey at 3 mg/kg, po by LC-MS/MS analysis
Type: ADME, organism-based, Macaca fascicularis
Settings: in vivo

Row | Compound | Tmax [h]
35 | Cc1ccc(Oc2ccc3nc(COc4cccc(C(=O)O)c4)n(C)c3c2)c(F)c1 | 1.5
36 | Cn1c(COc2cccc(C(=O)O)c2)nc2ccc(Oc3cc(F)ccc3F)cc21 | 1

Test system: not listed separately
Experiment: Aqueous thermodynamic solubility of the compound in pH 6.8 solution up to 4 hrs by HPLC-UV analysis
Type: physicochemical
Settings: read-out: Therm_solubility

Row | Compound | solubility thermodynamic at 4 h [µg/mL]
37 | Cc1ccc(Oc2ccc3nc(COc4cccc(C(=O)O)c4)n(C)c3c2)c(F)c1 | 0.5 (≈ 1.23 µM)
38 | Cn1c(COc2cccc(C(=O)O)c2)nc2ccc(Oc3cc(F)ccc3F)cc21 | 5.7 (≈ 13.9 µM)

Test system: not listed separately
Experiment: Volume of distribution at steady state in cynomolgus monkey at 1 mg/kg, iv by LC-MS/MS analysis
Type: ADME, organism-based, Macaca fascicularis
Settings: in vivo, read-out: Vdss

Row | Compound | Vd [L/kg]
39 | Cc1ccc(Oc2ccc3nc(COc4cccc(C(=O)O)c4)n(C)c3c2)c(F)c1 | 1.23
40 | Cn1c(COc2cccc(C(=O)O)c2)nc2ccc(Oc3cc(F)ccc3F)cc21 | 0.39

Test system: Rattus norvegicus
Experiment: Glucose-lowering effect in Zucker diabetic fatty rat assessed as reduction in plasma glucose level at 3 mg/kg, po administered once daily for 14 days measured on day 14 post last dose relative to control
Type: functional
Design: scale not given: the % may be the effect or the level left
Settings: not given

Row | Compound | Activity [%]
41 | Cc1ccc(Oc2ccc3nc(COc4cccc(C(=O)O)c4)n(C)c3c2)c(F)c1 | 61.7
42 | Cn1c(COc2cccc(C(=O)O)c2)nc2ccc(Oc3cc(F)ccc3F)cc21 | 61.2

Test system: not listed separately
Experiment: AUClast in cynomolgus monkey at 3 mg/kg, po by LC-MS/MS analysis
Type: ADME, organism-based, Macaca fascicularis
Design: dose 3 mg/kg, route oral, time 0 - last
Settings: in vivo

Row | Compound | AUC(0-t) [ng·h/mL]
43 | Cc1ccc(Oc2ccc3nc(COc4cccc(C(=O)O)c4)n(C)c3c2)c(F)c1 | 2870
44 | Cn1c(COc2cccc(C(=O)O)c2)nc2ccc(Oc3cc(F)ccc3F)cc21 | 40900

Target: T3, Peroxisome proliferator-activated receptor alpha (Homo sapiens) (UniProt Q07869)
T3 sequence (whole entry): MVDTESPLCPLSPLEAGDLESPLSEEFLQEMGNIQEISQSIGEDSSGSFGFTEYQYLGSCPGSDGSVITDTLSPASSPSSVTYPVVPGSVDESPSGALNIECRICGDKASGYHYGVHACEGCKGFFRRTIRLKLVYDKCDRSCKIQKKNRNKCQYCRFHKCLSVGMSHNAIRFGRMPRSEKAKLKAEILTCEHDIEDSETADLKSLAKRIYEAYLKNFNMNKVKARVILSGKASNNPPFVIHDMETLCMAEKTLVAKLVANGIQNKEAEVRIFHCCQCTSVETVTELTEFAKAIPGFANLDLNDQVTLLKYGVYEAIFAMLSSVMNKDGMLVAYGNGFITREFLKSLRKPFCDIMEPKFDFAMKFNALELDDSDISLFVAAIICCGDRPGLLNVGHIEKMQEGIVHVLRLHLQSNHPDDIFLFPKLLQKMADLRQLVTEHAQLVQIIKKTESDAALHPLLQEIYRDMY
Experiment: Agonist activity at recombinant human GAL4-DBD fused PPARalpha LBD expressed in COS7 cells at 10 uM after 24 hrs by luciferase reporter gene assay relative to 2-(4-tert-Butylphenoxy)-3-[4-[2-[(4-pyridin-2-ylbenzoyl)amino]ethoxy]
Type: cell-based
Settings: not given

Row | Compound | Emax [%]
45 | Cc1ccc(Oc2ccc3nc(COc4cccc(C(=O)O)c4)n(C)c3c2)c(F)c1 | 16
46 | Cn1c(COc2cccc(C(=O)O)c2)nc2ccc(Oc3cc(F)ccc3F)cc21 | 36

Target: T4, Peroxisome proliferator-activated receptor alpha (Homo sapiens, UniProt Q07869)
T4 sequence (Q07869 whole entry): T3 sequence (whole entry)
Experiment: Agonist activity at recombinant human GAL4-DBD fused PPARalpha LBD expressed in COS7 cells after 24 hrs by luciferase reporter gene assay
Type: cell-based
Settings: not given

Row | Compound | EC50 [nM]
47 | Cc1ccc(Oc2ccc3nc(COc4cccc(C(=O)O)c4)n(C)c3c2)c(F)c1 | > 10000
48 | Cn1c(COc2cccc(C(=O)O)c2)nc2ccc(Oc3cc(F)ccc3F)cc21 | > 10000
